Laboratory results taken from patent US7659277B2, “Ubiquitin ligase inhibitors and methods related thereto” (Proteologies, Ltd., priority 2003, dated 2010).

Target: T1, POSH (Homo sapiens, UniProt Q7Z6J0)
T1 construct: GST-POSH lot NB81/p.118 3.6 mg/ml; fused on or other part: GST tag, used for detection with anti-GST XL665
T1 sequence (Q7Z6J0 1-269 limits assumed): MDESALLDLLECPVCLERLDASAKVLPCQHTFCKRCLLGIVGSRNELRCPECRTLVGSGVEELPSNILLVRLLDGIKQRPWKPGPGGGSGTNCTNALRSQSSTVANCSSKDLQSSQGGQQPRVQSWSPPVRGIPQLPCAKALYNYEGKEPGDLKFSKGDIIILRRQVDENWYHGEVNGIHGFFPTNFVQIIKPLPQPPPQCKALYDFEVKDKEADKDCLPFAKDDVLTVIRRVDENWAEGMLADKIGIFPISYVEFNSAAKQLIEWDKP
Assay: IC50 assay procedure: GST-POSH auto-ubiquitination, homogeneous time-resolved fluorescence (Ub-cryptate / anti-GST XL665)
Format: biochemical
Details: ubiquitin ligase activity of POSH; GST-POSH 33 nM, 30 min preincubation
In short: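 GST-POSH (33 nM) preincubated 30 min at RT with compounds (DMSO dilution series), then added to E1/E2/Eu-cryptate-ubiquitin enzyme mix for 30 min at 37 °C. Stopped with EDTA, anti-GST XL665 added 45 min at RT; HTRF signal of POSH auto-ubiquitination read, triplicates, IC50 from concentration series.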

SMILES	IC50
COC(=O)C1=C(C(=O)OC)SC(=C2C(=S)C(C)(C)N(C(C)=O)c3cc(C)ccc32)S1 [Compound 99]	1500 nM
O=C1c2ccccc2-c2nc3nonc3nc21 [Compound 91]	300 nM
O=C(/C=C/c1cccnc1)c1ccc(C(=O)/C=C/c2cccnc2)cc1 [Compound 92]	500 nM
O=c1oc2ccccc2c(O)c1C(=S)Nc1ccccc1 [Compound 96]	500 nM
O=C(Nc1cccc2c(NC(=O)C3C4CCCCC43)cccc12)C1C2CCCCC21 (stereo not drawn) [Compound 97]	600 nM
Cc1cc(O)c(C(=O)/C=C/c2cccc(I)c2)c(=O)o1 [Compound 87]	800 nM
O=C1NC(=O)N(c2ccccc2)C(=O)/C1=C\c1ccc2c(c1)OCO2 [Compound 4]	800 nM
CN(C)c1ccc(/C=C2/C(=O)NC(=O)N(C3CCCCC3)C2=O)cc1 [Compound 3]	900 nM
COc1ccc(Nc2ccc(O)c3c2C(=O)c2ccccc2C3=O)cc1 [Compound 100]	700 nM
O=C(O)COc1ccc2c(c1)oc(=O)c1ccccc12 [Compound 85]	700 nM
COc1cc(C2Nc3ccccc3NC3=C2C(=O)CC(C)(C)C3)cc(Br)c1O (stereo not drawn) [Compound 102]	800 nM
Cc1ccc(C(=O)NN=C2CCC(=NNC(=O)c3ccc(C)cc3)CC2)cc1 [Compound 93]	1300 nM
O=C(NCc1ccc(Cl)cc1)C(=O)Nc1ccccc1 [Compound 104]	1000 nM
COc1ccc(C(=O)CC2=C(O)C(=O)c3ccccc3C2=O)cc1 [Compound 89]	1000 nM
Cc1cc(OC(=O)Cn2c(=O)sc3ccccc32)ccc1Cl [Compound 103]	400 nM
Cc1[nH]c(=O)c(C(=O)/C=C/c2ccccc2F)c2c1CCCC2 [Compound 95]	1000 nM
O=C(Cc1ccccc1)N1N=CCC1(O)c1ccc(F)cc1 (stereo not drawn) [Compound 94]	1000 nM
O=C(NC(C(Cl)(Cl)Cl)S(=O)(=O)c1ccccc1)c1ccc(Cl)cc1Cl (stereo not drawn) [Compound 88]	250 nM
